Measured values from ChEMBL document CHEMBL3271995, “Antineoplastic agents. 2. Structure-activity studies on N-protected vinyl, 1,2-dibromoethyl, and cyanomethyl esters of several amino acids” (J Med Chem, 1977).
The source made the active and inactive calls. The rule behind the calls is not given here.

Tests used:
Ehrlich [1] = experiment: Antineoplastic activity against mouse EAC allografted in CF1 mouse assessed as ascites volume on day 7 measured at 33 mg/kg (reference value: 4.1 +/- 1.24 mL); type: functional
Ehrlich [2] = experiment: Antineoplastic activity against mouse EAC allografted in CF1 mouse assessed as packed cell volume on day 7 measured at 33 mg/kg (reference value: 32.75 +/- 7.87%); type: functional
Ehrlich [3] = experiment: Antineoplastic activity against mouse EAC allografted in CF1 mouse assessed as tumor growth inhibition on day 7 measured at 33 mg/kg; type: functional; conditions: 168 h, read-out: TGI
P388 [4] = experiment: Antitumor activity against mouse P388 cells allografted in DBA/2 mouse assessed as animal survival days at 20 mg/kg/day, ip; type: functional; conditions: route intraperitoneal
W256 [5] = experiment: Antitumor activity against rat Walker 256 cells allografted in Sprague-Dawley rat assessed as survival time (treated/control) at 2.5 mg/kg/day, ip; type: functional; conditions: route intraperitoneal
W256 [6] = experiment: Antitumor activity against rat Walker 256 cells allografted in Sprague-Dawley rat assessed as animal survival days at 2.5 mg/kg/day, ip; type: functional; conditions: route intraperitoneal
P388 [7] = experiment: Antitumor activity against mouse P388 cells allografted in DBA/2 mouse assessed as median survival time of treated versus control mice (T/C) at 20 mg/kg/day, ip; type: functional; conditions: route intraperitoneal
Ehrlich [8] = experiment: Antineoplastic activity against mouse EAC allografted in CF1 mouse assessed as animal survival on day 7 measured at 33 mg/kg; type: functional, organism-based; set-up: dose 33 mg/kg
[9] = Acute toxicity in CF1 mouse; type: organism-based; conditions: in vivo

| SMILES | Activity (Ehrlich [1]) | Activity (Ehrlich [2]) | inhibition in vivo at 33 mg/kg (Ehrlich [3]) | Survival (P388 [4]) | T/C (W256 [5]) | Survival (W256 [6]) | T/C (P388 [7]) | Activity (Ehrlich [8]) | LD50 [9] |
| --- | --- | --- | --- | --- | --- | --- | --- | --- | --- |
| Cc1ccc(S(=O)(=O)N[C@@H](Cc2ccccc2)C(=O)CCl)cc1 [TPCK] | 0.01 mL | 0.05% | 100% |  |  |  |  |  |  |
| O=C(CCCNC(=O)OCc1ccccc1)OC(Br)CBr (stereo not drawn) | 0.6 mL | 2% | 98.7% | 8.1 days | 226% | 18.1 days | 100% |  |  |
| O=C(N[C@@H](Cc1ccccc1)C(=O)OC(Br)CBr)OCc1ccccc1 (stereo partly drawn) | 0 mL | 1.4% | 100% |  |  |  |  | Active |  |
| C=COC(=O)[C@H](Cc1ccc(O)cc1)NC(=O)OCc1ccccc1 | 3.9 mL | 29.7% | 16% |  |  |  |  | Active |  |
| C=COC(=O)[C@H](Cc1ccc(O)cc1)NS(=O)(=O)c1ccc(C)cc1 | 1.9 mL | 17.5% | 75% |  |  |  |  | Active |  |
| C=COC(=O)CNC(=O)OCc1ccccc1 | 1.5 mL | 34% | 63% |  |  |  |  | Active | 2130 µmol/kg |
| C=COC(=O)[C@H](Cc1ccccc1)NC(=O)OCc1ccccc1 | 0.1 mL | 0.4% | 99.9% |  |  |  |  | Active | > 6150 µmol/kg |
| N#CCOC(=O)[C@H](Cc1ccc(O)cc1)NC(=O)OCc1ccccc1 | 4.5 mL | 31.1% | 0% |  |  |  |  | Active |  |
| C#CCOC(=O)CNC(=O)OCc1ccccc1 | 5.2 mL | 27% | 0% |  |  |  |  | Active |  |
| O=C(CCCCCNC(=O)OCc1ccccc1)OC(Br)CBr (stereo not drawn) | 1.7 mL | 30% | 50% |  |  |  |  |  |  |
| Cc1ccc(S(=O)(=O)N[C@@H](Cc2ccc(O)cc2)C(=O)OCC#N)cc1 | 3.8 mL | 15.8% | 56% |  |  |  |  |  | 220 µmol/kg |
| O=Cc1ccccc1 [BENZALDEHYDE] | 0.8 mL | 49% | 69% |  |  |  |  | Active |  |
| O=C(OC(Br)CBr)[C@@H]1CCCN1C(=O)OCc1ccccc1 (stereo partly drawn) | 2.1 mL | 10% | 84% |  |  |  |  | Active | 190 µmol/kg |
| O=C(O)CNC(=O)OCc1ccccc1 | 0.2 mL | 22% | 97% |  |  |  |  |  |  |
| C=COC(=O)[C@H](Cc1c[nH]c2ccccc12)NC(=O)OCc1ccccc1 | 1.3 mL | 14.3% | 87% |  | 106% | 8 days |  | Active |  |
| O=C(O)C[C@H](NC(=O)OCc1ccccc1)C(=O)O | 3.7 mL | 21% | 31% |  |  |  |  | Active |  |
| O=c1[nH]cc(F)c(=O)[nH]1 [FLUOROURACIL] |  |  |  | 11 days |  |  | 136% |  |  |
| O=C(CNC(=O)OCc1ccccc1)OC(Br)CBr (stereo not drawn) | 0 mL | 0% | 100% | 2.2 days | 135% | 10.1 days | 28% | Active | 370 µmol/kg |
| C=COC(=O)[C@@H]1CCCN1C(=O)OCc1ccccc1 | 1 mL | 35% | 73% |  |  |  |  |  | 1820 µmol/kg |
| O=C(O)CC[C@H](NC(=O)OCc1ccccc1)C(=O)O | 0.7 mL | 28% | 81% |  |  |  |  | Active | 1780 µmol/kg |
| O=C(O)CCCNC(=O)OCc1ccccc1 | 0.8 mL | 32.3% | 71% |  |  |  |  | Active |  |
| O=C(O)CCCCCNC(=O)OCc1ccccc1 | 1 mL | 33% | 63% |  |  |  |  | Active |  |
| N#CCOC(=O)[C@H](Cc1ccccc1)NC(=O)c1ccccc1 | 1.8 mL | 13.2% | 47% |  |  |  |  |  |  |
| N#CCOC(=O)C[C@H](NC(=O)OCc1ccccc1)C(=O)OCC#N | 4.7 mL | 33% | 7% |  |  |  |  |  |  |
